Measurements from patent US20220257599A1, “METHODS USEFUL IN TREATING CANCERS HARBORING A KRAS OR HRAS MUTATION OR AMPLIFICATION” (Memorial Sloan Kettering Cancer Center, priority 2019, published 2022).

Legend:
vector line = assay: Intracellular endomembrane lipid nanosensor (reporter) assay, near-infrared hyperspectral microscopy; conditions: 24 h with 100 nM dexamethasone salt
iKRas cells [1] = assay: as above; type: cell-based, mouse; conditions: for lipid nanosensor response in iKRas relative to vector: pathway inhibitors, 500 nM, 24 h treated cultures; for attenuation of lipid reporter response (lipid dysregulation) in iKRas cells: 50 nM during the 24 h induction period, order darapladib>rilapladib≈ML256>AA39-2
Protocol: Hyperspectral Microscopy. For lipid reporter imaging experiments, cells were plated on 35 mm glass bottom dishes (MatTek Corp. P35G-1.5-10-C) so that around 0.5-0.8E6 cells were present on assay day. 24 h prior to assay, cells were briefly rinsed with fresh media and cultured as described. On the day of the assay, test media was removed to a sterile Eppendorf, spun in a mini-fuge to pellet cellular debris, and stored at 37° C. Attached cells were briefly rinsed with Pulse media (serum-free complete medium), then exposed to nano-reporter (0.2 μg/mL in Pulse media) for 30 minutes. After exposure, excess nano-reporter was removed by rinsing in complete medium and the stored test media was re-added to the dish for the 5-h incubation period. Near-infrared hyperspectral microscopy^87 was performed on live attached cells to obtain fluorescence emission maps from endomembrane vesicles.^88 Briefly, a 730 nm continuous wave diode laser was pumped through fibers to a 100× oil objective to excite the fluorescent reporters inside attached cells. Collected emission was stored as a hyperspectral imaging cube of encoded wavelengths rectified between 1100 and 1200 nm. The center wavelength for each pixel in the cube was obtained by fitting a Lorentzian function in MATLAB. The center wavelength of the entire population of pixels in each cube, representing a 100× magnified imaging field, was fit with a Gaussian function in OriginPro 9.0. The resulting fit center wavelength values are reported.
To assess lipid dysregulation in live cells, the lipid nanosensor was introduced into the culture medium of RAS- or vector-transformed cell lines. Near-infrared hyperspectral microscopy was utilized to acquire the fluorescence spectra of the nanosensor spatially within iKRas, iHRas, eKRas, vector control cells, and MEFs harboring mutations in the parallel PI3K pathway. The data were fitted to determine the center wavelength of the nanosensor emission band, which was then mapped back over the brightfield images of the cells and plotted in a histogram. Using this method, the average sensor emission wavelength 24 h and 72 h after oncogenic RAS induction was measured.
Next measured was whether this intracellular reporter response was sensitive to sPLA2-mediated generation of lysophospholipids and related lipid species. Lipid accumulation was measured using the nanosensor 24 h after treating the cells with an array of PLA2 inhibitors.

eKRas cells = assay: Proliferation assay (attached cell number); type: cell-based, mouse; conditions: critical micelle concentrations, 10 μM of each lipid
Protocol: (§1) Proliferation Assays. To assay proliferation, 6E4 cells/well were plated in 6-well plates (ThermoFisher 140675) with complete medium to generate triplicate wells, per experimental condition, for Day 0 through Day 3/4. 6-8 h after seeding cells, wells were briefly rinsed with fresh medium and then cultured with the appropriately supplemented test medium. The Day 0 plate was counted at this time. Plates were counted at 24-h intervals. Attached and spread MEF's are >95% viable,^84 as confirmed by a lack of trypan blue staining or positive western blot for cleaved caspase 7 or PARP (data not shown). To count attached cells, media was aspirated from each well then rinsed, using manual agitation, twice in room temperature (RT) 1×HBSS (w/o Ca/Mg++). Attached cells were trypsinized with 1 mL TrypLE. An imaging cytometer (Thermo T10796; factory default settings) was loaded with chamber slides (ThermoFisher T10794) containing 24 μL of the trypsinized cell suspension. 18 fields were imaged; the cytometer output was given in cells/mL. […] An upper gating threshold was set at 34 μm to include size-doubling of the measured 17 μm average.
(§2) As sPLA2 enzyme isoforms have been described as both tumor suppressors and tumor promoters,^48, 49, 50, 51, 52, 53 iKRas cells were interrogated using two representative lipids—a group 7 sPLA2 substrate, and a product. First, the vector control cells were incubated with increasing concentrations of 16:0 lysoPC, a group 7 sPLA2 product, and 16:0 methylcarbamyl PAF (cPAF), a substrate. […] Therefore, in the vector control cells, intracellular accumulation of the group 7 sPLA2 product affected proliferation to a greater extent than the enzyme substrate. […] In addition, eKRas cells were much more sensitive to the substrate lipid absent significant RAS-related damage or group 7 activity.

iKRas cells [2] = assay: Proliferation assay (attached cell number); type: cell-based, mouse; conditions: critical micelle concentrations, 10 μM of each lipid
Protocol: as §1, §2

vector control cells = assay: Proliferation assay (attached cell number); type: cell-based, mouse; conditions: increasing lipid concentrations spiked into culture medium; lysoPC effect near its CMC, cPAF at sub-critical and critical micelle concentrations
Protocol: as §1, §2

[3] = tested on: phospho-ERK and p21^waf1/cip1; assay: Immunoblot of vector/iKRas cell lysates; type: cell-based, mouse; conditions: vector and iKRas cells, 24 h exposure to 10 μM lipid
PAF receptor (PAF-R) = assay: Immunoblot for the PAF receptor; type: cell-based, mouse; conditions: vector cells, 24 h exposure to 10 μM lipid
[4] = tested on: syngeneic KrasG12D/+; Trp53−/− (KP) transplant model of non-small cell lung cancer; assay: In vivo survival study; design: species or system mouse
Protocol: In vivo survival study. To generate the syngeneic KP transplant lung cancer model, a cell line derived from a KrasG12D/+; Trp53−/−(KP) GEMM lung tumor was infected with a retroviral luciferase (Luc)-GFP construct, and 5000 KP tumor cells resuspended in 400 μL of PBS were tail vein injected into 7 week old Female C57BL/6 mice.^90 Mice were randomized into various study cohorts before treatment with vehicle or darapladib. Treatments were administered by oral gavage once per day, Monday through Friday. […] Bioluminescence positive mice remained in the study while bioluminescence negative mice were euthanized, and their lungs were harvested for histology. Tissues were rinsed and fixed in 4° C. buffered 4% paraformaldehyde for 24-48 hours and moved to 4° C. 70% ethanol for long term storage, embedding, sectioning, and staining (H&E, anti-GFP primary antibody, anti-Ki-67 primary antibody). […] Tissues negative for histological dysplasia were excluded from final study analysis; tissues positive for histological dysplasia were kept in the final study analysis. Each cohort's N value was adjusted to reflect histology results before final analysis. […]
The inventors next assessed whether group 7 inhibition would impact the development of a RAS-harboring murine cancer model. […]

[5] = depending on the cell type and downstream marker used; read-out: reported EC50; cited from earlier work
[6] = cited from earlier work
iKRas cells [7] = assay: Lipidomics (LC-MS) after inhibitor treatment; conditions: iKRas cells treated with darapladib; especially lysoPC, also lysoPE, lysoPI, lysoPS
Protocol: Lipidomics and Analysis. 100 mm plates were seeded, grown, and induced so that on the day of harvest dishes were 90-100% confluent. Culture medium was Phenol red-free. To harvest conditioned media, the full volume was moved to a glass vial on dry ice/alcohol slurry and a fresh cold PBS volume equal to ¼ of the collected volume was used to rinse the cells; this volume was collected and pooled. To harvest lysate, a separate dish of cells was washed three times with cold HBSS; on the last wash, liquid was aspirated, and the dish was placed onto the dry ice/alcohol slurry to freeze for 30 seconds. 1 mL of a 2:0.8 parts methanol:water mix (chilled to −80° C. and stored on dry ice) was added to the plate. The dish was immediately moved to wet ice and scrapped with a rubber policeman. Lysate was pooled in the bottom of the dish, and then transferred to a glass vial on dry ice until −80° C. storage. The lysate extract vials were briefly flushed with nitrogen gas. […] Quantitation used an MRM method under positive and negative electrospray modes. Raw data was reported as Mol %, or ng/mL of the lipid species normalized to the absolute total lipid abundance (ng/mL) detected by the mass spectrometer. Reported data is Mol % divided by the total adherent cell count from a parallel-treated plate, calculated as a Fold change versus control: (iKRas/Vector)-1.

[8] = tested on: RAS harboring lines (iKRas cells and cell lines derived from lung, pancreas, and colorectal tumors); assay: Cell viability after darapladib treatment (CellTiter-Glo); conditions: 48 h incubation
Protocol: (§3) 5,000 cells/well of doxycycline induced iKRas or target mouse/human cells were seeded in 96-well plates 1 day prior to the start of treatment. On the day of the experiment, increasing concentrations of darapladib were added in triplicate to the conditioned media. After incubation for 48 h, the cell viability was assessed using the CellTiter-Glo® luminescent assay (Promega G9681). Prior to use, reconstituted kit reagent was equilibrated to room temperature. To initiate cell lysis, 50 μL of reagent was added to each well. Plates were incubated for 10 minutes at room temperature with gentle mixing on an orbital shaker. Luminescence was measured using a Tecan Infinite M1000 Pro plate reader (Tecan Group Ltd.).

[9] = tested on: RAW 264.7 murine macrophages; assay: as above; conditions: 48 h incubation
Protocol: as §3

[10] = tested on: eKRas versus wildtype SV40 MEFs; assay: as above; conditions: sigmoidal dose-response
Protocol: as §3

[11] = 20 nM during the 24 h induction period

C[C@@H]1C[C@H]2[C@@H]3CCC4=CC(=O)C=C[C@]4(C)[C@@]3(F)[C@@H](O)C[C@]2(C)[C@@]1(O)C(=O)CO [dexamethasone]
reporter response in the vector line (vector line): increased the reporter response

Cn1nccc1Nc1nccc(-c2ccn([C@H](CO)c3ccc(Cl)c(F)c3)c(=O)c2)n1 [GDC-0994]
lipid nanosensor response in iKRas relative to vector (iKRas cells [1]): significantly diminished

N#Cc1c(Oc2ccc(F)c(NC(=O)Cc3cccc(C(F)(F)F)c3)c2)ccc2nc(NC(=O)C3CC3)sc12 [TAK-632]
lipid nanosensor response in iKRas relative to vector (iKRas cells [1]): significantly diminished

O=C(N1CCCC1)n1ncc(-c2ccc(-c3ccccc3)cc2)n1 [AA39-2]
attenuation of lipid reporter response (lipid dysregulation) in iKRas cells (iKRas cells [1]): attenuated the reporter response

CCCCCCCCCCCCCCCC(=O)OC[C@@H](O)COP(=O)([O-])OCC[N+](C)(C)C [lysoPC, 16:0 lysoPC]
effect on eKRas cell proliferation (eKRas cells): negligible arresting effect or a reduced arresting effect
effect on iKRas cell proliferation (iKRas cells [2]): negligible arresting effect or a reduced arresting effect
vector control cell proliferation (vector control cells): arrested
phospho-ERK and p21^waf1/cip1 expression [3]: not

CCCCCCCCCCCCCCCCOC[C@H](COP(=O)([O-])OCC[N+](C)(C)C)OC(=O)NC [cPAF, 16:0 methylcarbamyl PAF]
effect on eKRas cell proliferation (eKRas cells): potent arresting effect
effect on iKRas cell proliferation (iKRas cells [2]): potent arresting effect
vector control cell proliferation (vector control cells): mild stimulatory effect
phospho-ERK and p21^waf1/cip1 expression [3]: increased
PAF-R expression (PAF receptor (PAF-R)): downregulated

O=C1O/C(=C/Br)CCC1c1cccc2ccccc12 (stereo not drawn) [BEL]
attenuation of lipid reporter response in iKRas cells (iKRas cells [1]; 75 nM during the 24 h induction period): unable to attenuate the lipid reporter response

COCCN1CCC(N(Cc2ccc(-c3ccc(C(F)(F)F)cc3)cc2)C(=O)Cn2c(SCc3cccc(F)c3F)cc(=O)c3ccccc32)CC1 [rilapladib]
attenuation of lipid reporter response (lipid dysregulation) in iKRas cells (iKRas cells [1]): attenuated the reporter response

CC(C)OC(=O)c1ccc(N2C(=O)C(Cl)=C(Cl)C2=O)cc1 [TSI-01]
attenuation of lipid reporter response in iKRas cells (iKRas cells [1]; 1 μM during the 24 h induction period): unable to attenuate the lipid reporter response

Cc1cc(N2CCN(C(=O)Oc3ccc(-c4ccccc4)cn3)CC2)c2ccccc2n1 [ML256]
attenuation of lipid reporter response (lipid dysregulation) in iKRas cells (iKRas cells [1]): attenuated the reporter response

CCCCCCCCCCCCCCCCOCC(COCC(F)(F)F)OP(=O)(O)OC (stereo not drawn) [MJ-33]
attenuation of lipid reporter response in iKRas cells (iKRas cells [1]; [11]): unable to attenuate the lipid reporter response

CCN(CC)CCN(Cc1ccc(-c2ccc(C(F)(F)F)cc2)cc1)C(=O)Cn1c(SCc2ccc(F)cc2)nc(=O)c2c1CCC2 [darapladib]
attenuation of lipid reporter response (lipid dysregulation) in iKRas cells (iKRas cells [1]): attenuated the reporter response
lung cancer-associated death and morbidity ([4]; 10 mg/kg daily oral gavage starting on Day 1 or Day 6, C57BL/6 mice): significant delay
survival in Kras^G12D/+/p53^−/− lung cancer model in mice ([4]; mouse, in vivo): prolonged survival
EC50 [5]: 10 to 1000 nM
safety in vivo [6]: safe and apparently side-effect-free
cardiovascular clinical endpoint, Phase 3 trials ([6]; in vivo): failing to meet its intended cardiovascular clinical endpoint
lysophospholipid levels (lipidomics) (iKRas cells [7]): significant attenuation
viability of RAS harboring lines [8]: died at low micromolar concentrations
viability of RAW 264.7 control cell line [9]: largely unaffected
potency at killing eKRas versus wildtype cells [10]: twice as potent

CCc1c(C(=O)C(N)=O)c2c(OCC(=O)O)cccc2n1Cc1ccccc1 [varespladib]
attenuation of lipid reporter response in iKRas cells (iKRas cells [1]; [11]): unable to attenuate the lipid reporter response

Cc1c(C)c2c(c(C)c1O)CC[C@@](C)(CCC[C@H](C)CCC[C@H](C)CCCC(C)C)O2 [Vitamin E, α-tocopherol]
reporter response in iKRas cells (iKRas cells [1]; 20 μM ±-α-tocopherol during the 24 h induction period): abrogated
